According to BindingDB's records for doi:10.1021/jm9603274 (R. W. Johnson Pharmaceutical Research Institute, 1996):

Test: Inhibitory activity against thrombin induced platelet aggregation

IC50 [nM] | Structure (SMILES)
23 | CN[C@H](Cc1ccccc1)C(=O)N1CCC[C@H]1C(=O)N[C@H](C=O)CCCN=C(N)N [1-(2-Methylamino-3-phenyl-propionyl)-pyrrolidine-2-carboxylic acid (1-formyl-4-guanidino-butyl)-amide]
23 | CN[C@H](Cc1ccccc1)C(=O)N1CCC[C@H]1C(=O)N[C@@H](CCCN=C(N)N)C(=O)c1nc2ccccc2s1 [RWJ-50353]
